From patent publication US20230113511A1, “USE OF TMAVA ANTAGONIST AND SYSTEM FOR DIAGNOSING FATTY LIVER OR HEART FAILURE” (ProgLead, Inc, priority 2020, published 2023)
One block for each compound: values may come before it.

What was measured:
mice [1] = experiment: High-fat diet mice given TMAVA in drinking water for 8 weeks (fatty liver and myocardial hypertrophy); format: in vivo
Excerpt: (§1) Mice in an experimental group were given a high-fat diet and drinking water dissolved with 0.325% (mass/volume %) TMAVA for 8 weeks; and mice in a control group were given a high-fat diet and normal drinking water. After 8 weeks, the mice in the experimental group and the control group were sacrificed and tested.

[2] = molecular target: T1, γ-isopropylbetaine hydroxylase (Bbox) (Homo sapiens, UniProt O75936); experiment: Binding affinity of Bbox and TMAVA by surface plasmon resonance; conditions: read-out: separation rate coefficient constant (binding affinity of Bbox and TMAVA)
T1 sequence (O75936 1-387): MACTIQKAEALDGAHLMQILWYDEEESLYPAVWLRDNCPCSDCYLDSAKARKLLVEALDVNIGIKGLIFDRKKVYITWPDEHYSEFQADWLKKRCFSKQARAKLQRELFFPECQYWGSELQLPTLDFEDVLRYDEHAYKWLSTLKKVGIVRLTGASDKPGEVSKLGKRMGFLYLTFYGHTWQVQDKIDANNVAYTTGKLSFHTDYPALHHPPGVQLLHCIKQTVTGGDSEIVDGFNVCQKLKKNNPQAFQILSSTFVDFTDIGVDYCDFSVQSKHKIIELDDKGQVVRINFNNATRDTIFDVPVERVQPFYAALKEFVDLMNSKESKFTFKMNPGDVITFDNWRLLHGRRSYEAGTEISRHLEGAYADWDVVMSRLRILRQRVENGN

[3] = molecular target: T1, γ-isopropylbetaine hydroxylase (Bbox); experiment: Bbox immobilized on a graphene surface and contacted with TMAVA; format: binding; conditions: in a similar way as γ-BB to Bbox
[4] = molecular target: T2, γ-isopropylbetaine hydroxylase (Bbox) (Mus musculus, UniProt Q924Y0); experiment: d9 carnitine formation from d9-γ-BB in high-fat diet mice given TMAVA; format: in vivo; conditions: 0.325% TMAVA in drinking water and d9-γ-BB, 8 weeks
T2 construct: from tissue; host or cells: whole animal (mice on high-fat diet)
T2 sequence (Q924Y0 1-387): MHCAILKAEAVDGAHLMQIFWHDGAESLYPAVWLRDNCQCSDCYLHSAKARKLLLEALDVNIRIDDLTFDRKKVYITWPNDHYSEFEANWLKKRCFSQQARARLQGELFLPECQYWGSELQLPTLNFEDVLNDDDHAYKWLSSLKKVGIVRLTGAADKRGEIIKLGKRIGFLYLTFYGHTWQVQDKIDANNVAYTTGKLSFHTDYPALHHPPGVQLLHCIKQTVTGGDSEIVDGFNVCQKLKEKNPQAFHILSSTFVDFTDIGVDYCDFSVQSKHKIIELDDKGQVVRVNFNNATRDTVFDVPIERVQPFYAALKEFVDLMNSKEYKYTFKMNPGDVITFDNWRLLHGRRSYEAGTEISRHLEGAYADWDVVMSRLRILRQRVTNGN
Excerpt: Endogenous carnitine synthesis played an important role in physiological dynamic equilibrium. A carnitine precursor (γ-BB) was hydroxylated by y-isopropylbetaine hydroxylase (Bbox) to produce carnitine.
Mice in an experimental group were given a high-fat diet, drinking water dissolved with 0.325% (mass/volume %) TMAVA, and d9-γ-BB; and mice in the control group were given a high-fat diet, normal drinking water, and d9-γ-BB. After 8 weeks, the mice in the experimental group and the control group were sacrificed and tested.

mice [5] = experiment: Carnitine absorption: d9-carnitine by gavage in TMAVA-treated mice; format: in vivo
mice [6] = experiment: Lipidolysis in high-fat diet mice given TMAVA in drinking water for 8 weeks; format: in vivo
Excerpt: as §1, with “TMAVA;” for “TMAVA for 8 weeks;”

intestinal flora = experiment: Co-incubation of conventionally raised mice feces with TML; conditions: different concentrations of TML, sterilized feces had no such effect
mice [7] = experiment: TML added to the drinking water of mice, urine TMAVA; format: in vivo
Excerpt: The antibiotic-treated mice were then placed in conventional cages with normal (non-sterile) mice to colonize the intestinal flora.

DavA and DavB proteins = molecular target: T3, DavA and DavB proteins (Pseudomonas putida, UniProt Q88QV1); conditions: purified DavA and DavB proteins from recombinant Escherichia coli strains
T3 sequence (Q88QV1 1-560): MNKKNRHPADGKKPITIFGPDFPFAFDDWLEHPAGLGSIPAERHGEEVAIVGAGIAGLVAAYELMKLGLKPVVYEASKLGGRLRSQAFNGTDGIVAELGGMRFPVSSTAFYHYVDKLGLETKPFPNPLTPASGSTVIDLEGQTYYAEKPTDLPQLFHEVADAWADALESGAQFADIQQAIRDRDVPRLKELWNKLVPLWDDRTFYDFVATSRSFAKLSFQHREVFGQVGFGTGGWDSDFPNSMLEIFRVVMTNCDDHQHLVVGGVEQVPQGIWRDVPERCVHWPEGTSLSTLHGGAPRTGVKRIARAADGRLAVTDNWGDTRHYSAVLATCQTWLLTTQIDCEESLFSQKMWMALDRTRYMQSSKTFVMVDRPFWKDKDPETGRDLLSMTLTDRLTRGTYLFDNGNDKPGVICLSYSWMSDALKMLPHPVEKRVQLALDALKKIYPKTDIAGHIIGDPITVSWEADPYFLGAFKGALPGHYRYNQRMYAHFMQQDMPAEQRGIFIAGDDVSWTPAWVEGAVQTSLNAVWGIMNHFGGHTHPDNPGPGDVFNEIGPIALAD

mice [8] = experiment: Exogenous carnitine supplementation in TMAVA-induced fatty liver and myocardial hypertrophy in mice; format: in vivo; conditions: high-fat diet, 0.325% TMAVA plus 0.325% carnitine in drinking water, 8 weeks
Excerpt: Mice were given a high-fat diet and drinking water containing 0.325% (mass/volume %) TMAVA; at the same time, one group was given TMAVA with 0.325% (mass/volume %) carnitine added to the drinking water (carnitine supplementation group).

mice [9] = experiment: d9-TML by gavage in mice, plasma d9-TMAVA; format: in vivo
[10] = histological analysis, 0.325% TMAVA

Kd [2]: 9.8 µM | binding of TMAVA to Bbox on graphene surface [3]: can bind to Bbox | level of d9 carnitine compared with control group [4]: significantly lower
SMILES: C[N+](C)(C)CCCCC(=O)[O-] [TMAVA, N,N,N-trimethyl-5-aminovaleric acid]
concentration of TMAVA in the plasma and various tissues, increase compared with control group (mice [1]; 0.325% (mass/volume %) TMAVA in drinking water): 10 times | cardiac systolic function (mice [1]; 0.325% TMAVA in drinking water): significantly reduced | concentration of aspartate aminotransferase in the plasma compared with control group (mice [1]; 0.325% TMAVA in drinking water): higher | level of triglyceride in the liver and heart tissues compared with control group (mice [1]; 0.325% TMAVA in drinking water): significantly higher | lipid droplet content in the liver and heart tissues (oil red O) compared with control group (mice [1]; 0.325% TMAVA in drinking water): higher | liver and heart size compared with control group (mice [1]; 0.325% TMAVA in drinking water): significantly larger | content of triglyceride in the plasma compared with control group (mice [1]; fasting state, 0.325% TMAVA in drinking water): significantly higher | level of d9-carnitine in the plasma compared with normal mice (mice [5]): significantly lower | level of free fatty acid in the blood compared with control group (mice [6]; 0.325% TMAVA in drinking water): higher | weight of the mice, decrease compared with control group (mice [6]; 0.325% TMAVA in drinking water): 30% | percentage of large and medium-sized fat cells in the subcutaneous fat (mice [6]; [10]): decreased | percentage of small fat cells in the subcutaneous fat (mice [6]; [10]): increased

SMILES: C[N+](C)(C)CCCC[C@H](N)C(=O)O [TML, Trimethyllysine]
TMAVA level on co-incubation of feces with TML (intestinal flora): increased over time and concentration | TMAVA level in urine (mice [7]): increased | TMAVA production in vitro from TML (DavA and DavB proteins): time-dependently produced

SMILES: C[N+](C)(C)CC(O)CC(=O)[O-] (centres unmarked) [carnitine]
aspartate aminotransferase after carnitine supplementation (mice [8]): 50 U/L | cardiac systolic function (mice [8]): significantly improved | content of triglyceride in the liver tissues, decrease (mice [8]): 20% | level of free fatty acid in the plasma (mice [8]): decreased | level of triglyceride in the plasma, decrease (mice [8]): 50% | lipid content in the liver tissues (oil red O) (mice [8]): decreased | weight of the heart (mice [8]): significantly reduced

plasma level of d9-TMAVA after d9-TML (mice [9]): increase over time
SMILES: [2H]C([2H])([2H])[N+](CCCCC(N)C(=O)[O-])(C([2H])([2H])[2H])C([2H])([2H])[2H] (centres unmarked) [d9-TML]
